The results in this text go back to paper PMC10487708, “Chlorin E6-Curcumin-Mediated Photodynamic Therapy Promotes an Anti-Photoaging Effect in UVB-Irradiated Fibroblasts” (International Journal of Molecular Sciences, 2023).

The subject of series [1] is UVB-irradiated BALB/c 3T3 cells. Kind of series: MTT cell viability of UVB-irradiated BALB/c 3T3 cells. It is filed as cell-based, mouse. The conditions noted are these: UVB 200 mJ/cm^2, 0.2–8 μM, 24 h. How it is done: To investigate the proper dose of UVB irradiation, BALB/c 3T3 cells were exposed to different doses of UVB (50, 100, 200, 800, 1600 mJ/cm^2) for 24 h. […] Therefore, the dose of 200 mJ/cm^2 was used in the subsequent in vitro studies to evaluate the protective effect of Ce6-PDT. The effect of Ce6-curcumin derivatives on BALB/c 3T3 cell viability was evaluated with the MTT assay.
Figure 6 The effect of Ce6-curcumin derivatives on UVB-irradiated BALB/c 3T3 cells. (A) Cell viability of BALB/c 3T3 cells irradiated with different doses of UVB (50, 100, 200, 800, 1600 mJ/cm^2) for 24 h. […] Data were represented as mean ± SD from at least three independent experiments and analyzed by one-way ANOVA with Tukey’s post hoc test, * p < 0.01, compared with UVB-treated groups.
BALB/c 3T3 cells were seeded at a density of 1 × 10^4 cells/well in 96-well plates for 24 h. The culture medium was replaced with phosphate-buffered saline (PBS), and the cells were pretreated with UVB (200 mJ/cm^2) before being incubated for 24 h incubation in an FBS-free medium containing different concentrations of Ce6-curcumin derivatives. Cell viability was measured by MTT assay.

A short description of series [2]: MTT cytotoxicity of Ce6-curcumin derivative PDT in BALB/c 3T3 cells. It is filed as cell-based, mouse. The following applies: mouse, BALB/c 3T3 cells; 3 h treatment, 660 nm 20 J/cm^2, MTT after 24 h, tested 200 to 6400 nM; read-out: IC50 cytotoxicity against BALB/c 3T3 cells. As for the experimental part:
(§1) MTT assay was used to evaluate viability after 24 h. IC50 values were calculated using GraphPad Prism 5 software.
(§2) Hs68 and BALB/c 3T3 cell viability was measured using a 3-[4,5-dimethylthylthiazol-2-yl]-2,5 diphenyl tetrazolium bromide (MTT) assay. The cells were cultured in 24-well plates at a density of 3 × 10^4 cells per well or BALB/c 3T3 cells at a density of 1 × 10^4 cells per well. […] The Hs68 cells were then exposed to LED light (660 nm; 89 W/m^2; 20 J/cm^2) for 37 min 27 s and incubated for 3 h. […] The cells were washed and treated with MTT, after which the plates were incubated at 37 °C in the dark for 2 h. After the formation of formazan, 100 µL of DMSO was added, and the absorbance was measured at 570 nm using a microtiter plate reader (Thermo-scientific, Skanlt software 5.0, Waltham, MA, USA)

The test system of the next series is COX-2, TNF-α, iNOS. The series is described as follows: Western blot of COX-2, TNF-α and iNOS in UVB-induced 3T3 fibroblasts. It is filed as cell-based, mouse. The following applies: for UVB-upregulated COX-2 and TNF-α protein levels: fibroblast cells. The source says:
We further investigated the expressions of COX-2, TNF-α, and MMP-1 to ascertain the effect of UVB on the expressions of NF-κB and AP-1-dependent genes. These genes have an NF-κB and AP-1 functional binding site in their promoter regions and are linked to inflammation.
Figure 10 Effect of Ce6-curcumin derivatives-PDT on UVB-induced COX-2 and iNOS expressions. […] Representative bars are expressed as mean only.
The cells were lysed with RIPA lysis buffer containing protease inhibitor cocktails (Gen-DEPOT, Katy, TX, USA). Cell lysates were vortexed and centrifuged at 13,000 rpm for 15 min at 4 °C. Protein concentration was determined using the Bradford protein assay kit, and the same amount of protein was separated by SDS-PAGE gel. Then, proteins were transferred to a polyvinylidene fluoride (PVDF) membrane. Further, the membranes were blocked with a blocking solution containing 5% skim milk in Tris-buffered saline containing Tween 20 (TBST) for 1 h and incubated overnight with the primary antibody diluted in 5% skim milk in TBST at 4 °C. Then, the membrane was rinsed with TBST for 30 min and incubated with horseradish peroxidase-conjugated secondary antibodies in a blocking solution for 1 h. All bands were visualized by using an enhanced chemiluminescence (ECL) kit (Pierce, Rockford, IL, USA) under a luminescent image analyzer (Amersham, GE Healthcare, Chicago, IL, USA). The primary antibodies against MMP-1 were obtained from Thermo Fischer Scientific Inc. (NYSE: TMO). Antibodies directed against p-p65, p65, p-p38, p38, p-ERK, ERK, p-c-JUN, and c-JUN were purchased from Cell Signaling Technology Inc. (Beverley, MA, USA). COX-2 and β-Actin antibodies were from Santa Cruz Biotechnology (Santa Cruz, CA, USA), while TNF-α antibodies were procured from Novus Biologicals, Inc. (Centennial, CO, USA).

Series [3] concerns collagen synthesis in Hs68 cells. Kind of series: Sircol collagen assay in UVB-irradiated Hs68 cells. The class given is cell-based, human. The conditions noted are these: 30–40 nM, UVB 200 mJ/cm^2, LED irradiated. As for the experimental part: The amount of collagen was measured through the Sircol collagen assay kit (Figure 8).
Each scale value is shown as the mean only.
Following this, 1 mL Sirius red dye, an anionic dye that reacts specifically with the basic side chain groups of collagens under the assay conditions, was added to 300 µL of cell culture medium supernatant and incubated with gentle rotation for 30 min at room temperature. After centrifugation, the pellet was washed with ice-cold acid-salt wash reagent released in alkali reagent, and the absorbance at 570 nm was measured using an ELISA reader (Sunrise, Tecan, Männedorf, Switzerland). The amount of collagen was calculated based on a standard curve obtained with the standard bovine type I collagen supplied with the kit.

In the next series the test system is BALB/c 3T3 cells. The series is described as follows: MTT cytotoxicity of Ce6-curcumin derivative PDT in BALB/c 3T3 cells. It is filed as cell-based, mouse. The conditions noted are these: Mus musculus, BALB/c3T3, light or radiation study; 3 h treatment, 660 nm 20 J/cm^2, MTT after 24 h; read-out: IC50 BALB/c 3T3 cell viability. How it is done: as §1, §2

For the compound `C=Cc1c(C)c2cc3nc(c(CC(=O)OC)c4[nH]c(cc5nc(cc1[nH]2)C(C)=C5CC)c(C)c4C(=O)NCCCNC(=O)CCCC(=O)Oc1ccc(/C=C/C(=O)CC(=O)/C=C/c2ccc(O)c(OC)c2)cc1OC)C(CCC(=O)OC)C3C` (stereo not drawn) [Ce6-propane-curcumin], in series [1], the “cell viability of UVB-irradiated BALB/c 3T3 cells” value is “not affected”. Besides, the IC50 in series [2] amounted to 2040 nM. Besides, in the series with COX-2, TNF-α, iNOS (75 and 100 μΜ), the “UVB-upregulated COX-2 and TNF-α protein levels” value is “downregulated these increases”. Also, the collagen synthesis entry in series [3] is “increase in collagen synthesis in a dose-dependent manner”.

On to `C=Cc1c(C)c2cc3nc(c(CC(=O)OC)c4[nH]c(cc5nc(cc1[nH]2)C(C)=C5CC)c(C)c4C(=O)NCCCOCCOCCOCCCNC(=O)CCCC(=O)Oc1ccc(/C=C/C(=O)CC(=O)/C=C/c2ccc(O)c(OC)c2)cc1OC)C(CCC(=O)OC)C3C` (stereo not drawn) [Ce6-diPEG-curcumin], for which the “concentration from which cytotoxicity was shown in UVB-irradiated BALB/c 3T3 cells” value in series [1] was at least 4 µM. Moreover, the IC50 with BALB/c 3T3 cells came out at 800 nM; in series [2], 830 nM. In the series on COX-2, TNF-α, iNOS (200 nM, PDT, UVB-induced 3T3), the “expression levels of iNOS and COX-2” value is reported as “below those seen in the normal control”. For the same compound, the “UVB-upregulated COX-2 and TNF-α protein levels” value in the series on COX-2, TNF-α, iNOS (150 and 200 μΜ) is “downregulated these increases”.
